Reference: patent US20220177968A1, “METHODS FOR DETECTING OR REDUCING THE INCIDENCE OF ADVERSE DRUG REACTIONS” (CHANG GUNG MEMORIAL HOSPITAL, LINKOU, priority 2019, published 2022)
Where “and” joins values, the source holds several entries; their conditions need not be identical. Equal values may be shown once.

How the values were obtained:
[1] = system: patients with CBZ-DRESS, European descent; test: HLA allele association with CBZ-induced DRESS (case-control, HLA typing); assay type: in vivo, human; details: for Odds ratio (95% CI): CBZ-DRESS cases vs European general population; for SCAR case N (%), allele carriers among cases: CBZ-DRESS patients
Text: (§1) A total of 28 patients of European descent with CBZ-SJS/TEN were enrolled in this study. SJS/TEN is characterized by a rapidly developing exanthema of purpuric macules and target-like lesions with skin detachment accompanied by hemorrhagic-erosive mucosal involvement. Skin detachment in SJS patients affects less than 10% of body surface area (BSA), while TEN patients have skin detachment greater than 30% of BSA. Detachment of 10-30% is defined as SJS/TEN-overlap, reflecting a continuum of severity variants of one disease entity. Patients with CBZ-DRESS were also enrolled for comparison. HLA-A and HLA-B genotypes of patients with CBZ-SJS/TEN were determined by SeCore HLA sequence-based typing (Invitrogen, Life Technologies, USA). Furthermore, the HLA genotypes for patients with CBZ-DRESS and general population (the control group) were also determined. Statistical analyses were performed using SPSS 21.0 (IBM, Armonk, N.Y.). Comparisons of genotype frequencies between groups were performed using Fisher exact tests. Differences were considered statistically significant at p-values of less than 0.05.

[2] = system: European descent patients with CBZ-induced SJS/TEN; test: HLA-A/B allele association with CBZ-induced SJS/TEN (case-control, sequence-based HLA typing); assay type: in vivo, human; details: for OR (95% CI) / Odds ratio (95% CI): CBZ-SJS/TEN cases vs European general population; for SJS/TEN N (%), allele carriers among cases / SCAR case N (%), allele carriers among cases: CBZ-SJS/TEN patients of European descent
Text: as §1

Odds ratio (95% CI) ([1]; HLA-A*31:01): 49.9 (12.9-193.6) | Sensitivity (%) ([1]; HLA-A*31:01 as marker of CBZ-DRESS): 70.00% | Odds ratio (95% CI) ([1]; HLA-B*38:01): 1.2 (0.1-21.0) | SCAR case N (%), allele carriers among cases ([1]; HLA-B*38:01): (0%) | Sensitivity (%) ([1]; HLA-B*38:01 as marker of CBZ-DRESS): 0% | Odds ratio (95% CI) ([1]; HLA-B*57:01/A*31:01/B*38:01): 14.1 (3.6-54.5) | SCAR case N (%), allele carriers among cases ([1]; HLA-B*57:01/A*31:01/B*38:01): (70.00%) | Sensitivity (%) ([1]; HLA-B*57:01/A*31:01/B*38:01 as marker of CBZ-DRESS): 70.00% | Odds ratio (95% CI) ([1]; HLA-B*57:01/A*31:01): 18.6 (4.8-71.9) | SCAR case N (%), allele carriers among cases ([1]; HLA-B*57:01/A*31:01): (70.00%) | Sensitivity (%) ([1]; HLA-B*57:01/A*31:01 as marker of CBZ-DRESS): 70.00% | Odds ratio (95% CI) ([1]; HLA-B*57:01/B*38:01): 0.4 (0-7.0) | SCAR case N (%), allele carriers among cases ([1]; HLA-B*57:01/B*38:01): (0%) | Sensitivity (%) ([1]; HLA-B*57:01/B*38:01 as marker of CBZ-DRESS): 0% | Odds ratio (95% CI) ([1]; HLA-B*57:01): 0.7 (0.0-11.3) | SCAR case N (%), allele carriers among cases ([1]; HLA-B*57:01): (0%) | Sensitivity (%) ([1]; HLA-B*57:01 as marker of CBZ-DRESS): 0% | OR (95% CI) ([2]; HLA-A*01:01): 2.2 (1.1-4.7) | SJS/TEN N (%), allele carriers among cases ([2]; HLA-A*01:01): 14/28 (50.0%) | OR (95% CI) ([2]; HLA-A*02:01): 0.5 (0.2-1.0) | SJS/TEN N (%), allele carriers among cases ([2]; HLA-A*02:01): 11/28 (39.29%) | OR (95% CI) ([2]; HLA-A*24:02): 0.6 (0.2-1.8) | SJS/TEN N (%), allele carriers among cases ([2]; HLA-A*24:02): 3/28 (10.71%) | OR (95% CI) ([2]; HLA-A*26:01): 3.5 (1.3-9.0) | SJS/TEN N (%), allele carriers among cases ([2]; HLA-A*26:01): 5/28 (17.86%) | OR (95% CI) ([2]; HLA-A*31:01): 3.5 (1.2-10.2) and 3.6 (1.2-10.3) | Sensitivity (%) ([2]; HLA-A*31:01 as marker of CBZ-SJS/TEN): 14.29% | OR (95% CI) ([2]; HLA-B*08:01): 1.5 (0.7-3.5) | SJS/TEN N (%), allele carriers among cases ([2]; HLA-B*08:01): 8/28 (28.57%) | OR (95% CI) ([2]; HLA-B*13:02): 1.8 (0.5-6.0) | SJS/TEN N (%), allele carriers among cases ([2]; HLA-B*13:02): 3/28 (10.71%) | OR (95% CI) ([2]; HLA-B*15:02): 44.4 (2.2-879.5) | SJS/TEN N (%), allele carriers among cases ([2]; HLA-B*15:02): 0/28 (0%) | OR (95% CI) ([2]; HLA-B*18:01): 1.1 (0.3-3.8) | SJS/TEN N (%), allele carriers among cases ([2]; HLA-B*18:01): 3/28 (10.71%) | Sensitivity (%) ([2]; HLA-B*38:01 as marker of CBZ-SJS/TEN): 14.29% | OR (95% CI) ([2]; HLA-B*44:02): 0.2 (0.0-1.4) | SJS/TEN N (%), allele carriers among cases ([2]; HLA-B*44:02): 1/28 (3.57%) | OR (95% CI) ([2]; HLA-B*44:03): 1.9 (0.6-5.4) | SJS/TEN N (%), allele carriers among cases ([2]; HLA-B*44:03): 4/28 (14.29%) | Odds ratio (95% CI) ([2]; HLA-B*57:01/A*31:01/B*38:01): 9.3 (4.4-19.9) | SCAR case N (%), allele carriers among cases ([2]; HLA-B*57:01/A*31:01/B*38:01): (60.71%) | Sensitivity (%) ([2]; HLA-B*57:01/A*31:01/B*38:01 as marker of CBZ-SJS/TEN): 60.71% | Odds ratio (95% CI) ([2]; HLA-B*57:01/A*31:01): 8.0 (3.8-16.7) | SCAR case N (%), allele carriers among cases ([2]; HLA-B*57:01/A*31:01): (50.00%) | Sensitivity (%) ([2]; HLA-B*57:01/A*31:01 as marker of CBZ-SJS/TEN): 50.00% | Odds ratio (95% CI) ([2]; HLA-B*57:01/B*38:01): 8.6 (4.1-18.1) | SCAR case N (%), allele carriers among cases ([2]; HLA-B*57:01/B*38:01): (50.00%) | Sensitivity (%) ([2]; HLA-B*57:01/B*38:01 as marker of CBZ-SJS/TEN): 50.00% | Sensitivity (%) ([2]; HLA-B*57:01 as marker of CBZ-SJS/TEN): 39.29%
Compound: NC(=O)N1c2ccccc2C=Cc2ccccc21 [CBZ, Carbamazepine]
